One assay relates to K562. Briefly: Cytotoxicity against human K562 cells by disk diffusion soft agar colony formation assay. The format is functional, cell-based. On the technique in general: In agar diffusion tests the substance spreads into inoculated agar from a disc or well.
The subject of another assay is SW 1116. Briefly: Cytotoxicity against human SW1116 cells by disk diffusion soft agar colony formation assay. The class given is functional, cell-based.

The source of these data is ChEMBL document CHEMBL4392866, “Cytotoxic Trichothecene Macrolides Produced by the Endophytic Myrothecium roridum” (J Nat Prod, 2019).

What is called IC50 is the midpoint of a concentration-inhibition curve. Lower therefore signals higher potency. Consider `CC1=C[C@H]2O[C@@H]3C[C@@H](OC(=O)/C=C\C=C\C(OCCC4=CC(=O)OC4)[C@@H](C)O)[C@](C)([C@@]2(COC(=O)/C=C(\C)CCO)CC1)[C@]31CO1` (stereo partly specified), for which the IC50 with K562 (k562) amounted to 1.2 nM; in the assay with SW 1116 (sw 1116), 3.1 nM.
Regarding `CC(=O)[C@@]12CC/C=C\C(=O)O[C@@H]3C[C@H]4O[C@@H]5C=C(C)CC[C@]5(COC(=O)/C=C(\CCO1)[C@H]2O)[C@]3(C)[C@]41CO1`, the IC50 in the assay with K562 (k562) worked out at 1.3 nM; with SW 1116 (sw 1116), 1.5 nM.
Consider `CC(=O)[C@@]12CC/C=C\C(=O)O[C@@H]3C[C@H]4O[C@@H]5[C@@H]6C[C@@]4(O)[C@@]3(C)[C@]5(CC[C@]6(C)O)COC(=O)/C=C(\CCO1)[C@H]2O`, for which the IC50 in the assay with K562 (Homo sapiens, K562) came out at 31600 nM; in the assay on SW 1116 (Homo sapiens, SW 1116) it was 22700 nM.
With `CC1=C[C@H]2O[C@@H]3C[C@H]4OC(=O)/C=C\CC[C@]5(C(=O)CO)OCC/C(=C\C(=O)OC[C@@]2(CC1)[C@]4(C)[C@]31CO1)[C@H]5O`, the results for the IC50 in the assay with K562 (k562) and with SW 1116 (sw 1116) were 920 nM and 550 nM, respectively.
Taken in the same sequence, the figures for `CC1=C[C@H]2O[C@@H]3C[C@H]4OC(=O)/C=C\CC[C@@]56OCC/C(=C\C(=O)OC[C@@]2(CC1)[C@]4(C)[C@]31CO1)[C@H]5O[C@@H](O)[C@@H]6O` were 1.1 nM and 1.5 nM.
The corresponding values for `CC1=C[C@H]2O[C@@H]3C[C@H]4OC(=O)/C=C\C=C\[C@@H]([C@@H](C)O)OCC/C(C)=C/C(=O)OC[C@@]2(CC1)[C@]4(C)[C@]31CO1` are 1 nM and 33 nM.
Take `CC(=O)[C@@]12CC/C=C\C(=O)O[C@@H]3C[C@H]4O[C@@H]5[C@@H]6C[C@@]4(O)[C@@]3(C)[C@]5(CC[C@]6(C)O)COC(=O)/C=C(\CCO1)[C@@H]2O`: the IC50 in the assay on K562 (Homo sapiens, K562) stood at 970 nM; with SW 1116 (Homo sapiens, SW 1116), 10600 nM.
Taken in the same sequence, the figures for `CC(=O)O[C@@H]1/C2=C/C(=O)OC[C@@]34CC[C@](C)(O)[C@H]5C[C@]6(O)[C@@H](C[C@@H](OC(=O)/C=C\CC[C@]1(C(C)=O)OCC2)[C@]36C)O[C@H]54` were 1530 nM and 4250 nM.
Taken in the same sequence, the figures for `C[C@]12[C@H]3C[C@H]4O[C@@H]5[C@H](C[C@]41O)[C@@](C)(O)CC[C@@]52COC(=O)/C=C1\CCO[C@]2(CC/C=C\C(=O)O3)[C@@H]1OC(=O)[C@@H]2O` were 16000 nM and 21100 nM.
Turning to `C/C1=C\C(=O)OC[C@]23CCC(CO)=C[C@H]2O[C@@H]2C[C@@H](OC(=O)/C=C\C=C\[C@H]([C@@H](C)O)OCC1)[C@@]3(C)[C@]21CO1`, the IC50 worked out at 7130 nM in the assay on K562 (k562) and 9060 nM in the assay on SW 1116 (sw 1116).
Regarding `C[C@]12[C@H]3C[C@H]4O[C@@H]5[C@H](C[C@]41O)[C@@](C)(O)CC[C@@]52COC(=O)/C=C1\CCO[C@@]2(CC/C=C\C(=O)O3)[C@H](O)C(=O)O[C@H]12`, the IC50 is 16000 nM with K562 (Homo sapiens, K562) and 11600 nM in the assay with SW 1116 (Homo sapiens, SW 1116).
`CC(=O)[C@@]12CC/C=C\C(=O)O[C@@H]3C[C@H]4O[C@@H]5C=C(CO)CC[C@]5(COC(=O)/C=C(\CCO1)[C@H]2O)[C@]3(C)[C@]41CO1`: the IC50 in the assay with K562 (k562) was found to be 2870 nM; in the assay with SW 1116 (sw 1116), 180 nM.
The corresponding values for `CC1=C[C@H]2O[C@@H]3C[C@H]4OC(=O)/C=C\CC[C@@]56OCC/C(=C\C(=O)OC[C@@]2(CC1)[C@]4(C)[C@]31CO1)[C@H]5OC(=O)[C@@H]6O` are 56 nM and 200 nM.
Turning to `C[C@]12[C@H]3C[C@H]4O[C@@H]5[C@H](C[C@]41O)[C@@](C)(O)CC[C@@]52COC(=O)/C=C1\CCO[C@@](C(=O)CO)(CC/C=C\C(=O)O3)[C@@H]1O`, the half-maximal inhibitory concentration (IC50) with K562 (Homo sapiens, K562) stood at 26700 nM; in the assay on SW 1116 (Homo sapiens, SW 1116), 23100 nM.
On to `CC1=C[C@H]2O[C@@H]3C[C@H]4OC(=O)/C=C\CC[C@@]5([C@H](C)O)OCC/C(=C\C(=O)OC[C@@]2(CC1)[C@]4(C)[C@]31CO1)[C@@H]5O`, for which the IC50 in the assay on K562 (k562) was found to be 510 nM; in the assay with SW 1116 (sw 1116), 2270 nM.
The corresponding values for `C/C1=C\C(=O)OC[C@]23CCC(CO)=C[C@H]2O[C@@H]2C[C@@H](OC(=O)/C=C\C=C\C(=O)OCC1)[C@@]3(C)[C@]21CO1` are 6.4 nM and 160 nM.
Turning to `C[C@]12[C@H]3C[C@H]4O[C@@H]5[C@H](C[C@]41O)[C@@](C)(O)CC[C@@]52COC(=O)/C=C1\CCO[C@]2(CC/C=C\C(=O)O3)[C@@H]1O[C@H](O)[C@H]2O`, the IC50 in the assay with K562 (Homo sapiens, K562) worked out at 8200 nM; in the assay with SW 1116 (Homo sapiens, SW 1116) it was 570 nM.
On to `CC1=C[C@H]2O[C@@H]3C[C@H]4OC(=O)/C=C\C=C\[C@H]([C@@H](C)O)OCC/C(CO)=C/C(=O)OC[C@@]2(CC1)[C@]4(C)[C@]31CO1`, for which the IC50 in the assay on K562 (k562) came out at 3150 nM; with SW 1116 (sw 1116) it was 7920 nM.
Take `C[C@@H]1CCOC(=O)/C=C/C=C\C(=O)O[C@@H]2C[C@H]3O[C@@H]4C=C(CO)CC[C@]4(COC(=O)[C@H]1O)[C@]2(C)[C@]31CO1` [16-HYDROXY VERRUCARIN A]: the IC50 came to 1.7 nM in the assay on K562 (k562) and 12 nM with SW 1116 (sw 1116).
In the case of `O=c1[nH]cc(F)c(=O)[nH]1` [FLUOROURACIL], the IC50 with K562 (Homo sapiens, K562) was 32900 nM; with SW 1116 (Homo sapiens, SW 1116), 76900 nM.
Regarding `CC1=C[C@H]2O[C@@H]3C[C@H]4OC(=O)/C=C\C=C\[C@H]([C@@H](C)O)OCC[C@@H](C)[C@H](O)C(=O)OC[C@@]2(CC1)[C@]4(C)[C@]31CO1` [RORIDIN A], the IC50 in the assay on K562 (k562) was determined as 7.1 nM; in the assay on SW 1116 (sw 1116), 210 nM.
For `CC1=C[C@H]2O[C@@H]3C[C@H]4OC(=O)/C=C\C=C\[C@H]([C@@H](C)O)OCC/C(C)=C/C(=O)OC[C@@]2(CC1)[C@]4(C)[C@]31CO1` [RORIDIN E], the IC50 is 540 nM in the assay on K562 (k562) and 39 nM with SW 1116 (sw 1116).
Taken in the same sequence, the figures for `CC1=C[C@H]2O[C@@H]3C[C@H]4OC(=O)/C=C\C=C\C(=O)OCC[C@@H](C)[C@H](O)C(=O)OC[C@@]2(CC1)[C@]4(C)[C@]31CO1` [VERRUCARIN A] were 3 nM and 1.8 nM.
